We go through four compounds from patent US20130053434A1, “IRREVERSIBLE INHIBITORS USEFUL FOR THE TREATMENT OF KINASE-RELATED PATHOLOGIES” (CENTRE NATIONAL DE LA RECHERCHE SCIENTIFIQUE, priority 2009, published 2013).

The conditions of series [1]: ester bond, DIAD/PPh3, toluene, 23.0 °C.
The conditions of series [2]: in vivo; cited from earlier work.

Read-outs that look alike come from different tables or passages of the source.

With `CCOCOc1cc2c(c(OCOCC)c1)C(=O)O[C@@H](C)C/C=C\C(OC(=O)c1ccccc1)[C@H]1OC(C)(C)O[C@H]1CCO2` (stereo partly shown), the ring closure, yield of all isomers in series [1] (from CCOCOc1cc(OCC[C@@H]2OC(C)(C)O[C@@H]2C(/C=C\C[C@@H](C)O)OC(=O)c2ccccc2)c(C(=O)O)c(OCOCC)c1, 10.7 mM, 2.0 h) was determined as 80%.

In the case of `CCOCOc1cc2c(c(OCOCC)c1)C(=O)O[C@@H](C)C/C=C(/F)C(OC(=O)c1ccccc1)[C@H]1OC(C)(C)O[C@H]1C/C=C/2` (stereo partly shown), in series [1] (from CCOCOc1cc(/C=C/C[C@@H]2OC(C)(C)O[C@@H]2C(OC(=O)c2ccccc2)/C(F)=C\C[C@@H](C)O)c(C(=O)O)c(OCOCC)c1, 10.2 mM, 1.5 h, 2 steps), the ring closure, yield of all isomers is 74%.

For `CCOCOc1cc2c(c(OCOCC)c1)C(=O)O[C@@H](C)C/C=C\C(OC(=O)c1ccccc1)[C@H]1OC(C)(C)O[C@H]1CC/C=C/2` (stereo partly shown), the ring closure, yield of all isomers in series [1] (from CCOCOc1cc(/C=C/CC[C@@H]2OC(C)(C)O[C@@H]2C(/C=C\C[C@@H](C)O)OC(=O)c2ccccc2)c(C(=O)O)c(OCOCC)c1, 10.5 mM, 2.0 h) was 70%.

As for `CCOc1cc2ncc(C#N)c(Nc3ccc(F)c(Cl)c3)c2cc1NC(=O)/C=C/CN(C)C` [EKB-569], the “safety in phase I clinical trial” value in series [2] is “safe”.
